Measured values published in patent US20240018145A1, “[…]-DEPENDENT EN[…] TREATING OR […]” (priority 2020, published 2024).
Where two headings read alike, the source gives them in different places.

System: FLU A (PR/8/34)
Experiment: Flu A Neuraminidase Antiviral Assay
Format: cell-based

| Compound | EC50 [nM] | EC50 (MDCK, 48 h) [nM] |
| --- | --- | --- |
| CN1C(=O)c2c(O)c(=O)ccn2N2C(c3ccccc3C3CC3)C(CC(F)(F)F)CCC12 (single isomer, unassigned) [Compound 107B, 1-(2-cyclopropylphenyl)-7-hydroxy-5-methyl-2-(2,2,2-trifluoroethyl)-1,2,3,4,4a,5-hexahydrodipyrido[1,2-b:2′,1′-f][1,2,4]triazine-6,8-dione] | 14.4 | – |
| CC1CC(c2ccccc2)N2C(C1)N(C)C(=O)c1c(O)c(=O)ccn12 (single isomer, unassigned) [Compound 6B, 7-hydroxy-3,5-dimethyl-1-phenyl-1,2,3,4,4a,5-hexahydrodipyrido[1,2-b:2′,1′-f][1,2,4]triazine-6,8-dione] | 7760 | – |
| CN1C(=O)c2c(O)c(=O)ccn2N2C(c3ccccc3)C(O)CCC12 (centres unmarked) [Compound 136A, 2,7-dihydroxy-5-methyl-1-phenyl-1,2,3,4,4a,5-hexahydrodipyrido[1,2-b:2′,1′-f][1,2,4]triazine-6,8-dione] | 1920 | – |
| CN1C(=O)c2c(O)c(=O)ccn2N2C1CCC1(CCC(F)(F)C1)C2c1ccccc1 (single isomer, unassigned) [Compound 68C, 3,3-difluoro-7′-hydroxy-5′-methyl-1′-phenyl-3′,4′,4a′,5′-tetrahydro-1′H-spiro[cyclopentane-1,2′-dipyrido[1,2-b:2′,1′-f][1,2,4]triazine]-6′,8′-dione] | 11.4 | – |
| CN1C(=O)c2c(O)c(=O)ccn2N2C1CCC1OCc3ccccc3C12C (centres unmarked) [Compound 148, 7-hydroxy-5,12a-dimethyl-2a,3,4,4a,5,12a-hexahydro-1H-isochromeno[3′,4′:5,6]pyrido[1,2-b]pyrido[2,1-f][1,2,4]triazine-6,8-dione] | – | 38 |
| O=C1c2c(O)c(=O)ccn2N2C(c3ccccc3)C(CC3(C(F)(F)F)CC3)CCC2N1CC1CC1 (single isomer, unassigned) [Compound 90B, 5-(cyclopropylmethyl)-7-hydroxy-1-phenyl-2-((1-(trifluoromethyl)cyclopropyl)methyl)-1,2,3,4,4a,5-hexahydrodipyrido[1,2-b:2′,1′-f][1,2,4]triazine-6,8-dione] | 29.3 | – |
| CCCC1CCC2C(n3ccc(=O)c(O)c3C(=O)N2C)C1(O)c1ccccc1 (single isomer, unassigned) [Compound 166A, 1,7-dihydroxy-5-methyl-1-phenyl-2-propyl-1,3,4,4a,5,11a-hexahydro-2H-pyrido[1,2-a]quinoxaline-6,8-dione] | – | > 8100 |
| COCCN1C(=O)c2c(O)c(=O)ccn2N2C(c3ccc(F)cc3)CCCC12 (single isomer, unassigned) [Compound 4A, 1-(4-fluorophenyl)-7-hydroxy-5-(2-methoxyethyl)-1,2,3,4,4a,5-hexahydrodipyrido[1,2-b:2′,1′-f][1,2,4]triazine-6,8-dione] | – | > 8100 |
| O=C1c2c(O)c(=O)ccn2N2C(c3ccccc3)C(CCC(F)(F)F)CCC2N1CC1CC1 (single isomer, unassigned) [Compound 100A, 5-(cyclopropylmethyl)-7-hydroxy-1-phenyl-2-(3,3,3-trifluoropropyl)-1,2,3,4,4a,5-hexahydrodipyrido[1,2-b:2′,1′-f][1,2,4]triazine-6,8-dione] | > 810 | – |
| CN1C(=O)c2c(O)c(=O)ccn2N2C1CCCC2(C)c1cccc(OC(F)F)c1 (single isomer, unassigned) [Compound 51B, 1-(3-(difluoromethoxy)phenyl)-7-hydroxy-1,5-dimethyl-1,2,3,4,4a,5-hexahydrodipyrido[1,2-b:2′,1′-f][1,2,4]triazine-6,8-dione] | 16.3 | – |
| CN1C(=O)c2c(O)c(=O)ccn2N2C1CCC1(CC(F)(F)C1)C2c1ccccc1 (single isomer, unassigned) [Compound 74D, 3,3-difluoro-7′-hydroxy-5′-methyl-1′-phenyl-3′,4′,4a′,5′-tetrahydro-1′H-spiro[cyclobutane-1,2′-dipyrido[1,2-b:2′,1′-f][1,2,4]triazine]-6′,8′-dione] | 442 | – |
| CC(=O)N[C@H]1CC[C@@H](c2ccccc2)N2[C@@H]1N(C)C(=O)c1c(O)c(=O)ccn12 [Compound 144, N-((1S,4S,4aS)-7-hydroxy-5-methyl-6,8-dioxo-1-phenyl-1,2,3,4,4a,5,6,8-octahydrodipyrido[1,2-b:2′,1′-f][1,2,4]triazin-4-yl)acetamide] | – | > 810 |
| CCc1ccccc1C1C(CC(F)(F)F)CCC2N(C)C(=O)c3c(O)c(=O)ccn3N12 (single isomer, unassigned) [Compound 112A, 1-(2-ethylphenyl)-7-hydroxy-5-methyl-2-(2,2,2-trifluoroethyl)-1,2,3,4,4a,5-hexahydrodipyrido[1,2-b:2′,1′-f][1,2,4]triazine-6,8-dione] | 3.7 | – |
| CN1C(=O)c2c(O)c(=O)ccn2N2C(c3cccc(F)c3)CCCC12 (single isomer, unassigned) [Compound 10B, 1-(3-fluorophenyl)-7-hydroxy-5-methyl-1,2,3,4,4a,5-hexahydrodipyrido[1,2-b:2′,1′-f][1,2,4]triazine-6,8-dione] | 86.5 | – |
| CN1C(=O)c2c(O)c(=O)ccn2N2C(c3ccccc3F)CCCC12 (single isomer, unassigned) [Compound 8A, 1-(2-fluorophenyl)-7-hydroxy-5-methyl-1,2,3,4,4a,5-hexahydrodipyrido[1,2-b:2′,1′-f][1,2,4]triazine-6,8-dione] | > 8100 | – |
| CN1C(=O)c2c(O)c(=O)ccn2N2[C@H](c3ccccc3)[C@@H](NC(=O)C(F)(F)F)CC[C@@H]12 [Compound 140] | – | 2400 |
| CN1C(=O)c2c(O)c(=O)ccn2N2C(c3ccccc3)C(c3cccc(F)c3F)CCC12 (single isomer, unassigned) [Compound 116A, 2-(2,3-difluorophenyl)-7-hydroxy-5-methyl-1-phenyl-1,2,3,4,4a,5-hexahydrodipyrido[1,2-b:2′,1′-f][1,2,4]triazine-6,8-dione] | 6200 | – |
| CN1C(=O)c2c(O)c(=O)ccn2N2C(c3ccccc3)C(CC3CC3(F)F)CCC12 (single isomer, unassigned) [Compound 114C, 2-((2,2-difluorocyclopropyl)methyl)-7-hydroxy-5-methyl-1-phenyl-1,2,3,4,4a,5-hexahydrodipyrido[1,2-b:2′,1′-f][1,2,4]triazine-6,8-dione] | 5.3 | – |
| CCN1C(=O)c2c(O)c(=O)cc(COC)n2N2C(c3ccccc3)C(CC(F)(F)F)CCC12 (centres unmarked) [Compound 131E, 5-ethyl-7-hydroxy-10-(methoxymethyl)-1-phenyl-2-(2,2,2-trifluoroethyl)-1,2,3,4,4a,5-hexahydrodipyrido[1,2-b:2′,1′-f][1,2,4]triazine-6,8-dione] | 6.8 | – |
| CN1C(=O)c2c(O)c(=O)ccn2N2C1CCCC2(C)c1ccccc1 (single isomer, unassigned) [Compound 18B, 7-hydroxy-1,5-dimethyl-1-phenyl-1,2,3,4,4a,5-hexahydrodipyrido[1,2-b:2′,1′-f][1,2,4]triazine-6,8-dione] | 356 | – |
| CN1C(=O)c2c(O)c(=O)ccn2N2C(c3ccccc3Cl)C(CCO)CCC12 (centres unmarked) [Compound 66B, 1-(2-chlorophenyl)-7-hydroxy-2-(2-hydroxyethyl)-5-methyl-1,2,3,4,4a,5-hexahydrodipyrido[1,2-b:2′,1′-f][1,2,4]triazine-6,8-dione] | 182 | – |
| Cc1ccccc1C1C(CC(F)(F)F)CCC2(C)N(C)C(=O)c3c(O)c(=O)ccn3N12 (single isomer, unassigned) [Compound 87B, 7-hydroxy-4a,5-dimethyl-1-(o-tolyl)-2-(2,2,2-trifluoroethyl)-1,2,3,4,4a,5-hexahydrodipyrido[1,2-b:2′,1′-f][1,2,4]triazine-6,8-dione] | 3.6 | – |
| CN1C(=O)c2c(O)c(=O)c(C#N)cn2N2C(c3ccccc3)C(CC(F)(F)F)CCC12 (centres unmarked) [Compound 133, 7-hydroxy-5-methyl-6,8-dioxo-1-phenyl-2-(2,2,2-trifluoroethyl)-1,2,3,4,4a,5,6,8-octahydrodipyrido[1,2-b:2′,1′-f][1,2,4]triazine-9-carbonitrile] | – | > 810 |
| COc1ccccc1C1C(CC(F)(F)F)CCC2N(C)C(=O)c3c(O)c(=O)ccn3N12 (single isomer, unassigned) [Compound 125A, 7-hydroxy-1-(2-methoxyphenyl)-5-methyl-2-(2,2,2-trifluoroethyl)-1,2,3,4,4a,5-hexahydrodipyrido[1,2-b:2′,1′-f][1,2,4]triazine-6,8-dione] | 1020 | – |
| CCN1C(=O)c2c(O)c(=O)ccn2N2C(c3ccccc3C)C(CC(F)(F)F)CCC12 (single isomer, unassigned) [Compound 93A, 5-ethyl-7-hydroxy-1-(o-tolyl)-2-(2,2,2-trifluoroethyl)-1,2,3,4,4a,5-hexahydrodipyrido[1,2-b:2′,1′-f][1,2,4]triazine-6,8-dione] | 475 | – |
| CC1(c2cc(C(F)(F)F)ccn2)CCCC2N(CC3(C(F)(F)F)CC3)C(=O)c3c(O)c(=O)ccn3N21 (single isomer, unassigned) [Compound 52B, 7-hydroxy-1-methyl-5-((1-(trifluoromethyl)cyclopropyl)methyl)-1-(4-(trifluoromethyl)pyridin-2-yl)-1,2,3,4,4a,5-hexahydrodipyrido[1,2-b:2′,1′-f][1,2,4]triazine-6,8-dione] | > 2700 | – |
| CN1C(=O)c2c(O)c(=O)ccn2N2C1CCCC2(C)c1ccccc1F (single isomer, unassigned) [Compound 24A, 1-(2-fluorophenyl)-7-hydroxy-1,5-dimethyl-1,2,3,4,4a,5-hexahydrodipyrido[1,2-b:2′,1′-f][1,2,4]triazine-6,8-dione] | 2.1 | – |
| CN1C(=O)c2c(O)c(=O)ccn2N2C1CCC1(CCC(F)(F)CC1)C2c1ccccc1 (single isomer, unassigned) [Compound 72A, 4,4-difluoro-7′-hydroxy-5′-methyl-1′-phenyl-3′,4′,4a′,5′-tetrahydro-1′H-spiro[cyclohexane-1,2′-dipyrido[1,2-b:2′,1′-f][1,2,4]triazine]-6′,8′-dione] | > 810 | – |
| Cc1ccc(C2(C)CCCC3N(CC(F)(F)F)C(=O)c4c(O)c(=O)ccn4N32)nc1 (single isomer, unassigned) [Compound 49A, 7-hydroxy-1-methyl-1-(5-methylpyridin-2-yl)-5-(2,2,2-trifluoroethyl)-1,2,3,4,4a,5-hexahydrodipyrido[1,2-b:2′,1′-f][1,2,4]triazine-6,8-dione] | > 8100 | – |
